{"source": "patent US10894787B2", "about": "“Modulators of the GPR119 receptor and the treatment of disorders related thereto” (Arena Pharmaceuticals, Inc., priority 2010, dated 2021)", "key": {"GPR119 receptor": {"molecular_target": "T1, GPR119 receptor (Homo sapiens, UniProt Q8TDV5)", "T1 construct": "expressed in transfected cells", "T1 sequence (Q8TDV5 2-335 limits assumed)": "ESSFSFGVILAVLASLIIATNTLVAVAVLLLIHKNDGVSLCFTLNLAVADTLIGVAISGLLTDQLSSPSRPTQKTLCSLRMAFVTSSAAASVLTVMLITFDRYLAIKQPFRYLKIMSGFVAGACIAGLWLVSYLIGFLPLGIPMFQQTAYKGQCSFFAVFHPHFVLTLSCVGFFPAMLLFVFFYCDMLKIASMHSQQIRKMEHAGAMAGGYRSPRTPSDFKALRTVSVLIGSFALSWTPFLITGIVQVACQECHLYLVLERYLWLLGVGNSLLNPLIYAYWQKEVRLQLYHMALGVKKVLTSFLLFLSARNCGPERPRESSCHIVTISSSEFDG", "experiment": "HTRF assay for direct cAMP measurement in CHO-K1 cells stably expressing the GPR119 receptor", "assay_type": "cell-based", "settings": "CHO-K1 cells stably expressing GPR119; 1 h incubation at room temperature; read-out: EC50, HTRF cAMP assay", "procedure": "The GPR119 agonist, Compound 1, was evaluated in an HTRF® cAMP detection assay according to the manufacturer's instructions (Cisbio, cAMP Dynamic 2 Assay Kit; #62AM4PEJ) using CHO-K1 cells stably expressing the GPR119 receptor. Briefly, CHO-K1 cells were transduced with a lentiviral vector encoding the nucleotide sequence of GPR119 (NCBI mRNA and protein reference sequences: NM_178471.2 & NP_848566, (GPR119 has also been referred to as Glucose-Dependent Insulinotropic Receptor (GDIR)). The N-terminus of the GPR119 nucleotide sequence was modified to replace the first, methionine-coding codon with a nucleotide sequence coding for a standard, nine amino acid, hemagglutinin tag. Following transduction, cells expressing the GPR119 receptor were isolated and a single clone was isolated following standard dilution-cloning procedures. On the day of the assay, cultured CHO-GPR119 cells were harvested, suspended in assay buffer and plated into 384-well assay plates (PerkinElmer Proxiplate #6008280) at a density of 2,000 cells per well. A cAMP standard curve was included on each plate. Test compounds were solubilized in DMSO, serially diluted in DMSO and then diluted in assay buffer before adding to the cells. Test compounds were evaluated in triplicate, using 10-point, 5-fold serial dilutions starting at 10 μM. The final DMSO concentration in the assay was 0.5%. Compounds and cells were incubated for 1 h at room temperature and then detection reagents were added to each well (cAMP-D2 in cell lysis buffer, followed by europium cryptate-labeled anti-cAMP antibody). Plates were then incubated at room temperature for 1 h prior to reading. Time-resolved fluorescence measurements were collected on PerkinElmer Envision™ or BMG Pherastar™ microplate readers. The compound N-(2-fluoro-4-(methylsulfonyl)phenyl)-6-(4-(3-isopropyl-1,2,4-oxadiazol-5-yl)piperidin-1-yl)-5-nitropyrimidin-4-amine was used as a positive control in each runset while assay buffer containing 0.5% DMSO was used as the negative control."}, "male diabetic ZDF rats": {"system": "male diabetic ZDF rats", "experiment": "Oral glucose tolerance test (oGTT) in male diabetic ZDF rats", "assay_type": "in vivo, rat", "settings": "for Plasma Glucose Mean: N = 6; for % Inhibition of Glucose Excursion: AUC reduction relative to vehicle control, ZDF rats", "procedure": "Male ZDF rats were fasted for 18 h and randomly grouped (n=6) to receive a GPR119 agonist, (Compound 1), at 0.3, 3, 10, or 30 mg/kg (mg compound per kg body weight). The compound was delivered orally via a gavage needle (p.o., volume 4 mL/kg) 60 min prior to glucose bolus (3 g/kg) (time=−60 min in FIG. 1), with a separate group receiving vehicle (20% hydroxypropyl-beta-cyclodextrin) as control. At time 0 min the glucose bolus was administered. Levels of blood glucose were assessed using a glucometer (One-Touch Ultra™ LifeScan) at time −60 minute (prior to compound administration), at 0 min (at time when glucose bolus was given), and at 30, 60, 90, and 120 min post glucose bolus. Glucose excursion (AUC (area under the curve) reduction) in compound treated animals relative to vehicle control is shown in FIG. 2 and Table 2."}, "incretin hormone GIP": {"system": "incretin hormone GIP", "experiment": "In vivo incretin hormone GIP release, Total GIP ELISA on plasma", "parameters": "species or system mouse", "settings": "blood sample after 45 min, male 129SVE mice", "procedure": "Male 129SVE mice (approximately 8-week old) were fasted for 18 h and randomly grouped (n=6) to receive a GPR119 agonist, (Compound 1), at an oral dose of 0.1, 0.3, 1, 3, 10, or 30 mpk (mg/kg body weight). Compounds were delivered orally via a gavage needle (p.o., volume 4 mL/kg), and after 45 min a blood sample was collected to determine plasma total GIP levels. A separate group received vehicle (PET: 80% PEG400, 10% ethanol, 10% Tween80) as control. Plasma GIP levels were determined using a Total GIP ELISA kit from Millipore."}}}
{"smiles": "CN(C)C(=O)c1ccc(Nc2ncnc(N3CCC(c4nc(C(C)(C)F)no4)CC3)c2F)c(F)c1", "note": "[Compound 1, 3-fluoro-4-(5-fluoro-6-(4-(3-(2-fluoropropan-2-yl)-1,2,4-oxadiazol-5-yl)piperidin-1-yl)pyrimidin-4-ylamino)-N,N-dimethylbenzamide]", "values": [{"measurement": "EC50", "setting": "GPR119 receptor", "result": 23.4, "unit": "nM"}, {"measurement": "Plasma Glucose Mean", "setting": "male diabetic ZDF rats; 0.3 mg/kg p.o. 60 min prior to glucose bolus, time 0 min", "result": 89.7, "unit": "mg/dL"}, {"measurement": "Plasma Glucose Mean", "setting": "male diabetic ZDF rats; 0.3 mg/kg p.o., 30 min post glucose bolus", "result": 201.7, "unit": "mg/dL"}, {"measurement": "Plasma Glucose Mean", "setting": "male diabetic ZDF rats; 0.3 mg/kg p.o., 60 min post glucose bolus", "result": 192.2, "unit": "mg/dL"}, {"measurement": "Plasma Glucose Mean", "setting": "male diabetic ZDF rats; 0.3 mg/kg p.o., 90 min post glucose bolus", "result": 185.3, "unit": "mg/dL"}, {"measurement": "Plasma Glucose Mean", "setting": "male diabetic ZDF rats; 0.3 mg/kg p.o., 120 min post glucose bolus", "result": 154.8, "unit": "mg/dL"}, {"measurement": "% Inhibition of Glucose Excursion", "setting": "male diabetic ZDF rats; 0.3 mg/kg p.o.", "result": 6.5, "unit": "%"}, {"measurement": "Plasma Glucose Mean", "setting": "male diabetic ZDF rats; 0.3 mg/kg p.o., time -60 min (prior to compound administration)", "result": 106.3, "unit": "mg/dL"}, {"measurement": "Plasma Glucose Mean", "setting": "male diabetic ZDF rats; 3.0 mg/kg p.o. 60 min prior to glucose bolus, time 0 min", "result": 82.7, "unit": "mg/dL"}, {"measurement": "Plasma Glucose Mean", "setting": "male diabetic ZDF rats; 3.0 mg/kg p.o., 30 min post glucose bolus", "result": 184.5, "unit": "mg/dL"}, {"measurement": "Plasma Glucose Mean", "setting": "male diabetic ZDF rats; 3.0 mg/kg p.o., 60 min post glucose bolus", "result": 144.2, "unit": "mg/dL"}, {"measurement": "Plasma Glucose Mean", "setting": "male diabetic ZDF rats; 3.0 mg/kg p.o., 90 min post glucose bolus", "result": 151.2, "unit": "mg/dL"}, {"measurement": "Plasma Glucose Mean", "setting": "male diabetic ZDF rats; 3.0 mg/kg p.o., 120 min post glucose bolus", "result": 146.2, "unit": "mg/dL"}, {"measurement": "% Inhibition of Glucose Excursion", "setting": "male diabetic ZDF rats; 3 mg/kg p.o.", "result": 47.0, "unit": "%"}, {"measurement": "Plasma Glucose Mean", "setting": "male diabetic ZDF rats; 3.0 mg/kg p.o., time -60 min (prior to compound administration)", "result": 110.0, "unit": "mg/dL"}, {"measurement": "Plasma Glucose Mean", "setting": "male diabetic ZDF rats; 10.0 mg/kg p.o. 60 min prior to glucose bolus, time 0 min", "result": 76.0, "unit": "mg/dL"}, {"measurement": "Plasma Glucose Mean", "setting": "male diabetic ZDF rats; 10.0 mg/kg p.o., 30 min post glucose bolus", "result": 174.0, "unit": "mg/dL"}, {"measurement": "Plasma Glucose Mean", "setting": "male diabetic ZDF rats; 10.0 mg/kg p.o., 60 min post glucose bolus", "result": 135.8, "unit": "mg/dL"}, {"measurement": "Plasma Glucose Mean", "setting": "male diabetic ZDF rats; 10.0 mg/kg p.o., 90 min post glucose bolus", "result": 141.3, "unit": "mg/dL"}, {"measurement": "Plasma Glucose Mean", "setting": "male diabetic ZDF rats; 10.0 mg/kg p.o., 120 min post glucose bolus", "result": 132.5, "unit": "mg/dL"}, {"measurement": "% Inhibition of Glucose Excursion", "setting": "male diabetic ZDF rats; 10 mg/kg p.o.", "result": 60.1, "unit": "%"}, {"measurement": "Plasma Glucose Mean", "setting": "male diabetic ZDF rats; 10.0 mg/kg p.o., time -60 min (prior to compound administration)", "result": 108.7, "unit": "mg/dL"}, {"measurement": "Plasma Glucose Mean", "setting": "male diabetic ZDF rats; 30.0 mg/kg p.o. 60 min prior to glucose bolus, time 0 min", "result": 93.0, "unit": "mg/dL"}, {"measurement": "Plasma Glucose Mean", "setting": "male diabetic ZDF rats; 30.0 mg/kg p.o., 30 min post glucose bolus", "result": 197.0, "unit": "mg/dL"}, {"measurement": "Plasma Glucose Mean", "setting": "male diabetic ZDF rats; 30.0 mg/kg p.o., 60 min post glucose bolus", "result": 124.8, "unit": "mg/dL"}, {"measurement": "Plasma Glucose Mean", "setting": "male diabetic ZDF rats; 30.0 mg/kg p.o., 90 min post glucose bolus", "result": 135.8, "unit": "mg/dL"}, {"measurement": "Plasma Glucose Mean", "setting": "male diabetic ZDF rats; 30.0 mg/kg p.o., 120 min post glucose bolus", "result": 130.2, "unit": "mg/dL"}, {"measurement": "% Inhibition of Glucose Excursion", "setting": "male diabetic ZDF rats; 30 mg/kg p.o.", "result": 52.1, "unit": "%"}, {"measurement": "Plasma Glucose Mean", "setting": "male diabetic ZDF rats; 30.0 mg/kg p.o., time -60 min (prior to compound administration)", "result": 104.8, "unit": "mg/dL"}, {"measurement": "Effect on blood glucose after a challenge with glucose", "setting": "male diabetic ZDF rats; diabetic ZDF rats, 0.3-30 mg/kg p.o.", "result": "lowered blood glucose"}, {"measurement": "Total Plasma GIP in Mice, Total GIP", "setting": "incretin hormone GIP; 0.1 mg/kg p.o.", "result": 60.92, "unit": "pg/mL"}, {"measurement": "Total Plasma GIP in Mice, Total GIP", "setting": "incretin hormone GIP; 0.3 mg/kg p.o.", "result": 68.21, "unit": "pg/mL"}, {"measurement": "Total Plasma GIP in Mice, Total GIP", "setting": "incretin hormone GIP; 1 mg/kg p.o.", "result": 183.8, "unit": "pg/mL"}, {"measurement": "Total Plasma GIP in Mice, Total GIP", "setting": "incretin hormone GIP; 3 mg/kg p.o.", "result": 318.5, "unit": "pg/mL"}, {"measurement": "Total Plasma GIP in Mice, Total GIP", "setting": "incretin hormone GIP; 10 mg/kg p.o.", "result": 444.8, "unit": "pg/mL"}, {"measurement": "Total Plasma GIP in Mice, Total GIP", "setting": "incretin hormone GIP; 30 mg/kg p.o.", "result": 695.0, "unit": "pg/mL"}]}
